Data reported in US20180258180A1, “COMBINATION THERAPY INVOLVING ANTIBODIES AGAINST CLAUDIN 18.2 FOR TREATMENT OF CANCER” (Ganymed Pharmaceuticals AG, priority 2012, published 2018).

Columns and labels:
[1] = system: NUGC-4~CLDN18.2 xenograft tumors; assay: Combination of IMAB362 and EOF regimen on NUGC-4~CLDN18.2 xenografts; set-up: species or system nude mice; settings: mouse, in vivo
Protocol: Xenograft tumors were inoculated by injection of 1×10^7 NUGC-4˜CLDN18.2 cells subcutaneous into the flank of 10 nude mice (female, six weeks old) per treatment group. Mice were treated on day 3, 10, 17 and 24 with chemotherapeutic agents. IMAB362 treatment was continued weekly.

[2] = Repeated dose toxicity study in cynomolgus monkeys; format: in vivo; settings: up to 5 weekly applications of up to 100 mg/kg
Text: This compartimentalization is lost upon malignant transformation rendering the epitope drugable by IMAB362.

[3] = system: HEK293~CLDN18.2 transfectants; assay: Early treatment of HEK293~CLDN18.2 tumor xenografts; format: in vivo, nude mice; settings: 200 μg twice per week for 6 weeks
Text: Moreover, advanced tumor treatment experiments were initiated up to 9 days after tumor cell inoculation when tumors had reached volumes of about 60-120 mm^3.
Nude mice were subcutaneously inoculated with 1×10^7 HEK293˜CLDN18.2 transfectants. Treatment of 10 mice per group started 3 days after tumor inoculation. […] Not only time to death was prolonged, but 4 of 10 mice survived the entire observation period of 210 days.

[4] = system: CLDN18.2-transfected HEK293 cells; assay: IMAB362 with ZA/IL-2 induced Vγ9Vδ2 T cells on HEK293~CLDN18.2 tumors in NSG mice; format: in vivo; settings: 200 μg semi-weekly, in the presence of human γδ T cells and ZA (and IL-2)
Protocol: NSG mice lack mature T cells, B cells, natural killer (NK) cells, multiple cytokine signaling pathways, and they have many defects in innate immunity, whereas the niches in the primary and secondary immunological tissues are permissive to colonization by human immune cells.
NSG mice were inoculated subcutaneously with 1×10^7˜CLDN18.2-transfected HEK293 cells. On the same day, mice received 8×10^6 human PBMCs enriched for Vγ9Vδ2 T cells, which were cultured for 14 days in ZA-supplemented medium. […] To maintain human T cells functional, IL-2 was administered semi-weekly and ZA weekly. […] In addition to 9 mice treated as described, two control groups of mice were established.

CLDN18.2 = CLDN18.2 (Homo sapiens, UniProt P56856); assay: IMAB362 binding to first extracellular domain of CLDN18.2

Substance: IMAB362: chimeric IgG1 antibody directed against CLDN18.2, developed by Ganymed Pharmaceuticals AG
- tumor growth compared to saline treated control group [1]: inhibited significantly the tumor growth
- tolerability of repeated doses i.v. [2]: well tolerated
- mice surviving the entire observation period of 210 days [3]: 4 of 10
- survival ([3]; start 3 days after inoculation): survival benefit
- outgrowth of CLDN18.2-positive tumors [4]: significantly inhibited and nearly abrogated
- recognition of the first extracellular domain (ECD1) of CLDN18.2 (CLDN18.2): high affinity and specificity
